Assay results taken from ChEMBL document CHEMBL4732141, “Imidazopyridine-Based 5-HT Receptor Neutral Antagonists: Impact of N-Benzyl and N-Phenylsulfonyl Fragments on Different Receptor Conformational States” (J Med Chem, 2021).
The source made the active and inactive calls. The rule behind the calls is not given here.

Assays:
[1] = Stability in pH 1 buffer assessed as compound decomposition after 1 hr; type: physicochemical; details: pH 1, 1 h
[2] = Stability in deuterated dimethyl sulfoxide; type: physicochemical
[3] = biological target: T1, 5-hydroxytryptamine receptor 1A (Homo sapiens, UniProt P08908); assay: Displacement of […] from human 5HT1A expressed in HEK293 cell membranes incubated for 1 hr by micro-beta plate reader based analysis; design: species or system Cell membrane
T1 sequence (P08908 whole entry): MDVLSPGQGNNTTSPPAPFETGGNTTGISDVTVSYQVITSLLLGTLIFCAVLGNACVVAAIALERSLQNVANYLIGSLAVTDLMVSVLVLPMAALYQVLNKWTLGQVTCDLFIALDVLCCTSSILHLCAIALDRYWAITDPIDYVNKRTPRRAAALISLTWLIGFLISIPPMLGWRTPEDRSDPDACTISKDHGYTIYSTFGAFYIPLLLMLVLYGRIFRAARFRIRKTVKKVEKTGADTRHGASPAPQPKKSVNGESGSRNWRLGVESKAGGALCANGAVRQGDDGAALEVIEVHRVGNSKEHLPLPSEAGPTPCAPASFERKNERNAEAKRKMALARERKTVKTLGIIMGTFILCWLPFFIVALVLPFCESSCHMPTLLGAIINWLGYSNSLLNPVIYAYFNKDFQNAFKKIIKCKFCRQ

[4] = biological target: 5-hydroxytryptamine receptor 2A (Homo sapiens, UniProt P28223); assay: Displacement of […] from human 5HT2A expressed in HEK293 cell membranes incubated for 1 hr by micro-beta plate reader based analysis; design: species or system Cell membrane
Sequence of 5-hydroxytryptamine receptor 2A (P28223 whole entry): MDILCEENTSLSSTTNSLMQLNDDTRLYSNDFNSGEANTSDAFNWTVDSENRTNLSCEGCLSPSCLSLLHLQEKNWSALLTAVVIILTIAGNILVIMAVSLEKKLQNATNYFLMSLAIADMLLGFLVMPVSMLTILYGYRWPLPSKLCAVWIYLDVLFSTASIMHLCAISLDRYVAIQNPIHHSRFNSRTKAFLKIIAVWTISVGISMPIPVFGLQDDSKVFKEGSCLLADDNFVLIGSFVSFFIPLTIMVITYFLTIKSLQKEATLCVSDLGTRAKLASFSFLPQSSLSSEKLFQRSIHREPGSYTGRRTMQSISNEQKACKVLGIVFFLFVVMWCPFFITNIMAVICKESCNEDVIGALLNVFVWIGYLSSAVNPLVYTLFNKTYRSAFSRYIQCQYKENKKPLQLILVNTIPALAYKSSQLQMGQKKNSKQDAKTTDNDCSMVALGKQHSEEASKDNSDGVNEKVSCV

[5] = Neurotoxicity in human SH-SY5Y cells assessed as reduction in cell viability incubated for 24 hrs by MTT assay; type: toxicity, cell-based
[6] = biological target: 5-hydroxytryptamine receptor 6 (Homo sapiens, UniProt P50406); assay: Binding affinity to 5HT6R (unknown origin)
Sequence of 5-hydroxytryptamine receptor 6 (P50406 whole entry): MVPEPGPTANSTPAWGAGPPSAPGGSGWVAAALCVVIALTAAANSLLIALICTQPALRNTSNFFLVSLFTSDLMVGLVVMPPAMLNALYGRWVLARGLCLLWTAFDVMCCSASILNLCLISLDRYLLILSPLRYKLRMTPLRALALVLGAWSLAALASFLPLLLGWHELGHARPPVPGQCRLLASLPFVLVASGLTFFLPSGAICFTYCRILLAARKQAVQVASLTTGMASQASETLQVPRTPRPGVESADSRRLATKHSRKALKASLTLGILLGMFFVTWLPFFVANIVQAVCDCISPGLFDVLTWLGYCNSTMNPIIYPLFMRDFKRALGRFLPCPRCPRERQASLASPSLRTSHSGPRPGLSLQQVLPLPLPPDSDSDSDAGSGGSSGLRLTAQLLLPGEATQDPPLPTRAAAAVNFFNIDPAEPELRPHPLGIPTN

[7] = Effect on neurite growth in […] NG108-15 cells expressing GFP-tagged 5-HT6 receptor assessed as neurite length at 1 uM incubated for 24 hrs by epifluorescence microscopy (reference value: 37.20 +/- 1.53 micrometer); type: functional
[8] = Toxicity in mouse C8-D1A astrocytes assessed as reduction in cell viability at […] by MTT assay; type: cell-based; details: astrocyte, dose 0.25 µM
[9] = Toxicity in mouse C8-D1A astrocytes assessed as reduction in cell viability by MTT assay; type: cell-based, Astrocyte
Astrocyte [10] = assay: Glio-protective activity in mouse C8-D1A astrocytes assessed as reduction in DOX-induced toxicity at […] pre-incubated for 5 hrs before doxorubicin addition and measured after 3 hrs by MTT assay; type: functional, cell-based; details: dose 0.25 µM, time 8.0 hrs
Astrocyte [11] = assay: Glio-protective activity in mouse C8-D1A astrocytes assessed as reduction in DOX-induced toxicity at […] pre-incubated for 5 hrs before doxorubicin addition and measured after 3 hrs by LDH release assay; type: functional, cell-based; details: dose 0.25 µM
Astrocyte [12] = assay: Glio-protective activity in mouse C8-D1A astrocytes assessed as reduction in 6-OHDA-induced toxicity at […] pre-incubated for 12 hrs before doxorubicin addition and measured after 24 hrs by MTT assay; type: functional, cell-based; details: dose 0.25 µM, time 36.0 hrs
Astrocyte [13] = assay: Glio-protective activity in mouse C8-D1A astrocytes assessed as reduction in 6-OHDA-induced toxicity at […] pre-incubated for 12 hrs before doxorubicin addition and measured after 24 hrs by LDH assay; type: functional, cell-based; details: dose 0.25 µM, time 36.0 hrs
[14] = biological target: T1, 5-hydroxytryptamine receptor 1A; assay: Agonist activity at human 5HT1A expressed in HEK293 cells assessed as stimulation of cAMP production incubated for 30 mins by LANCE ultra cAMP detection assay; type: cell-based
[15] = biological target: T1, 5-hydroxytryptamine receptor 1A; assay: Antagonist activity at human 5HT1A expressed in HEK293 cells assessed as reduction in forskolin-induced stimulation of cAMP production incubated for 30 mins by LANCE ultra cAMP detection assay; type: cell-based; details: hek293, 0.5 h
[16] = biological target: T2, alpha-1A adrenergic receptor (Homo sapiens, UniProt P35348); assay: Inhibition of human alpha1A adrenergic receptor at 1 uM relative to control
T2 sequence (P35348 whole entry): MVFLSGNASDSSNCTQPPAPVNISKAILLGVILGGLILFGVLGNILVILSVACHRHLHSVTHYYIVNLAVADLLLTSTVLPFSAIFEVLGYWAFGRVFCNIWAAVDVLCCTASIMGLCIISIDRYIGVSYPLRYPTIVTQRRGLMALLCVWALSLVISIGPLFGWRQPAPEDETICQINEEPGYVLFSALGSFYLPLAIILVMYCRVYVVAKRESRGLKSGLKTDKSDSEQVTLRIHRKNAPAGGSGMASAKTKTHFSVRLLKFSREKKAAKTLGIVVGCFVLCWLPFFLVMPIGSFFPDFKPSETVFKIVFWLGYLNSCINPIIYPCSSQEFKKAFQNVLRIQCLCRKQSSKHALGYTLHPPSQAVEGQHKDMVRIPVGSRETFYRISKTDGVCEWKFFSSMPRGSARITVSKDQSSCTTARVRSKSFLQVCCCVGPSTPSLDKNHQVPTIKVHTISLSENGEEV

[17] = biological target: beta-1 adrenergic receptor (Homo sapiens, UniProt P08588); assay: Inhibition of human beta1 adrenergic receptor at 1 uM relative to control
Sequence of beta-1 adrenergic receptor (P08588 whole entry): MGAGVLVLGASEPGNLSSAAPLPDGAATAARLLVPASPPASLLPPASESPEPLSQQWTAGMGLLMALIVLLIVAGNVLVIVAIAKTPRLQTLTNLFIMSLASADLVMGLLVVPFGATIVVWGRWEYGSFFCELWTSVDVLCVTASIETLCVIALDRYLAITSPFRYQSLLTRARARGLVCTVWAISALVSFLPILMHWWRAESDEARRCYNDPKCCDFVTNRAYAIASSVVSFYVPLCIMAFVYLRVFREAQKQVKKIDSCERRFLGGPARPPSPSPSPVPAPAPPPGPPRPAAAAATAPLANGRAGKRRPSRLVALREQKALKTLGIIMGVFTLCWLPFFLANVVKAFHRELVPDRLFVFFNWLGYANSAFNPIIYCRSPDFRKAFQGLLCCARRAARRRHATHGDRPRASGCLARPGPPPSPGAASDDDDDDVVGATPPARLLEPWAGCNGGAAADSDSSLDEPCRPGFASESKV

hERG (KCNH2) = hERG (KCNH2) (Homo sapiens, UniProt Q12809); assay: Inhibition of human ERG at 1 uM relative to control
Sequence of hERG (KCNH2) (Q12809 whole entry): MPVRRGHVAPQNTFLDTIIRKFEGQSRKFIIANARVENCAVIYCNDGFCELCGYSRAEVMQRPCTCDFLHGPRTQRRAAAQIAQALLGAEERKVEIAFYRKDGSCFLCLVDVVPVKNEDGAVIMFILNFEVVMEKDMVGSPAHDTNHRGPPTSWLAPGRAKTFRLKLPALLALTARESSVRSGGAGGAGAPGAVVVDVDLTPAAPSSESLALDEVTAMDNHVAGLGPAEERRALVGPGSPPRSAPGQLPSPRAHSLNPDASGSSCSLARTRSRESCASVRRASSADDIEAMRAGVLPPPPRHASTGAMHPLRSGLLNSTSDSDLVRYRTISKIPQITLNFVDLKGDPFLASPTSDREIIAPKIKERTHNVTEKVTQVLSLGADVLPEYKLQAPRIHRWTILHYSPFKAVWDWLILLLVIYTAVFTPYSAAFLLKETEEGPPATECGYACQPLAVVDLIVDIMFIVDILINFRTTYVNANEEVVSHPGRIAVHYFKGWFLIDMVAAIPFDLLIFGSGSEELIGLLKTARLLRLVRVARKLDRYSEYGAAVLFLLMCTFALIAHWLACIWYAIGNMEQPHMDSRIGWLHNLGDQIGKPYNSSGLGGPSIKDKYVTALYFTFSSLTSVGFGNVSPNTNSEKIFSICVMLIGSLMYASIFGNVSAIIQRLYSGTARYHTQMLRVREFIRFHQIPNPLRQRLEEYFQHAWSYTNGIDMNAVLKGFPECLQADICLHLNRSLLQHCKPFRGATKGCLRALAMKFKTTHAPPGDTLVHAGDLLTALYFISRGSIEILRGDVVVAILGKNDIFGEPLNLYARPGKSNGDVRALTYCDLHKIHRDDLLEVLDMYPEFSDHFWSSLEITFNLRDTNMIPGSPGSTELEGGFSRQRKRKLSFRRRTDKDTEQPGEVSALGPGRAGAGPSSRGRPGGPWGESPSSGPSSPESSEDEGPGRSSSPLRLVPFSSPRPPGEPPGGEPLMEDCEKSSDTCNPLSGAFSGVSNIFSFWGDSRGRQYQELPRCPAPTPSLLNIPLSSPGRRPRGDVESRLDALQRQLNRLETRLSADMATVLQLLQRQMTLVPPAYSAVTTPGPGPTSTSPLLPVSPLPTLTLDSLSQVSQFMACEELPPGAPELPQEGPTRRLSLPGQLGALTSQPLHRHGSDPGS

[18] = biological target: histamine H1 receptor (HRH1) (Homo sapiens, UniProt P35367); assay: Inhibition of human HRH1 at 1 uM relative to control
Sequence of histamine H1 receptor (HRH1) (P35367 whole entry): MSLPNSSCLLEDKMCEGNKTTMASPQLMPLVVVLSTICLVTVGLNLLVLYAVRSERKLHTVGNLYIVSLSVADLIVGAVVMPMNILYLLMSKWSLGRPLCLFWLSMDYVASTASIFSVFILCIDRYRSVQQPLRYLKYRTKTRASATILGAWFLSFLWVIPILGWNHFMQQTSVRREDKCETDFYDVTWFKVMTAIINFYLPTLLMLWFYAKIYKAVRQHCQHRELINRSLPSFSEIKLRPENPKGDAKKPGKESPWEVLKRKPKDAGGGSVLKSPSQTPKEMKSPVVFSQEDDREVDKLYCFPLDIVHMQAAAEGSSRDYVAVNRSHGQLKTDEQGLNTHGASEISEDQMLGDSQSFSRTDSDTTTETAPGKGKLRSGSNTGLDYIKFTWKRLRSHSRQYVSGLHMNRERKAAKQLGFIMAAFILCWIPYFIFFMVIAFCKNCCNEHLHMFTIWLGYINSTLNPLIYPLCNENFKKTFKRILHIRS

[19] = biological target: T3, muscarinic acetylcholine receptor M1 (Homo sapiens, UniProt P11229); assay: Inhibition of human muscarinic receptor 1 at 1 uM relative to control
T3 sequence (P11229 whole entry): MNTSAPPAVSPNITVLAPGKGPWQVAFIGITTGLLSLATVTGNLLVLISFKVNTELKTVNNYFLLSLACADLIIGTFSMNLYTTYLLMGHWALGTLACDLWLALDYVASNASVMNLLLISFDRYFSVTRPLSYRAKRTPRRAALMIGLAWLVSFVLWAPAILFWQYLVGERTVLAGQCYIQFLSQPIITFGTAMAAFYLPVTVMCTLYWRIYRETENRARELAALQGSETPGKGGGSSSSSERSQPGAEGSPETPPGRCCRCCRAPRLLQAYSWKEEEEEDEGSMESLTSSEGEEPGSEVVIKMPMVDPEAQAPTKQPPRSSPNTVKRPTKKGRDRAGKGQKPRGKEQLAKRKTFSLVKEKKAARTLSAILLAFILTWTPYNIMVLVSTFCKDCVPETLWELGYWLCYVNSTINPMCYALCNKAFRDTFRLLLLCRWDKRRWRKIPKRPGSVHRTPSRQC

[20] = Stability in pH 1 buffer assessed as compound decomposition after 24 hrs; type: physicochemical; details: pH 1, 24 h

Stabilty [1] | Stabilty [2] | Compound | further results
Stable | Unstable | COc1cccc(S(=O)(=O)n2cnc3c(N4CCNCC4)nccc32)c1 | –
Stable | Unstable | COc1cccc(S(=O)(=O)n2c(-c3ccccc3)nc3c(N4CCNCC4)nccc32)c1 | –
– | – | COc1cccc2c1C(=O)c1c(O)c3c(c(O)c1C2=O)C[C@@](O)(C(=O)CO)C[C@@H]3O[C@H]1C[C@H](N)[C@H](O)[C@H](C)O1 [DOXORUBICIN] | IC50 at 24 h [5]: 2300 nM
Stable | Unstable | CC(C)c1nc2c(N3CCNCC3)nccc2n1S(=O)(=O)c1cccc(F)c1 | –
Stable | Unstable | O=S(=O)(c1cccc(F)c1)n1cnc2c(N3CCNCC3)nccc21 | –
Stable | Unstable | O=S(=O)(c1ccccc1)n1c(-c2ccccc2)nc2c(N3CCNCC3)nccc21 | –
– | – | Cc1nc2c(N3CCNCC3)cccc2n1S(=O)(=O)c1ccccc1 [PF-05212377] | Ki [6]: 0.5 nM
Stable | – | O=S(=O)(c1ccccc1)c1cnc2c(N3CCNCC3)cccc2c1 [INTEPIRDINE] | Activity [7]: 12.06 um; Activity [8]: Non-Toxic; CC50 [9]: > 1000 nM
– | – | COc1ccc(NS(=O)(=O)c2ccc(I)cc2)cc1N1CCN(C)CC1 | Activity [8]: Non-Toxic; CC50 [9]: > 1000 nM; Activity (Astrocyte [10]): inactive; Activity (Astrocyte [11]): inactive; Activity (Astrocyte [12]): inactive; Activity (Astrocyte [13]): inactive
Stable | Unstable | O=S(=O)(c1ccccc1)n1cnc2c(N3CCNCC3)nccc21 | –
Stable | Unstable | O=S(=O)(c1cccc(F)c1)n1c(-c2ccccc2)nc2c(N3CCNCC3)nccc21 | –
Stable | Unstable | COc1cccc(S(=O)(=O)n2c(C(C)C)nc3c(N4CCNCC4)nccc32)c1 | Stabilty [20]: Stable
Stable | Unstable | CC(C)c1nc2c(N3CCNCC3)nccc2n1S(=O)(=O)c1ccccc1 | –

Compound | Stabilty [1] | Stabilty [2] | further results
O=S(=O)(c1cccc(Cl)c1)n1c(-c2ccccc2)nc2c(N3CCNCC3)nccc21 | Stable | Unstable | Ki [3]: 1090 nM; Ki [4]: 410 nM
CC(C)c1nc2c(N3CCNCC3)nccc2n1S(=O)(=O)c1cccc(Cl)c1 | Stable | Unstable | Ki [3]: 307 nM; Ki [4]: 239 nM
O=S(=O)(c1cccc(Cl)c1)n1cnc2c(N3CCNCC3)nccc21 | Stable | Unstable | Ki [3]: 285 nM; Ki [4]: 355 nM
CCc1nc2c(N3CCNCC3)nccc2n1S(=O)(=O)c1cccc(F)c1 | Stable | Unstable | Ki [3]: 829 nM; Ki [4]: 264 nM
CCc1nc2c(N3CCNCC3)nccc2n1S(=O)(=O)c1cccc(Cl)c1 | Stable | Unstable | Ki [3]: 146 nM; Ki [4]: 562 nM; EC50 [14]: > 20000 nM; Activity [15]: Not Active; inhibition at 1 µM [16]: 22%; inhibition at 1 µM [17]: 10%; inhibition at 1 µM (hERG (KCNH2)): 12%; inhibition at 1 µM [18]: 6%; inhibition at 1 µM [19]: 4%
